Assay results from patent publication US20070003987A1, “Screening method for substance binding to merozoite surface protein-1/42” (priority 2003, published 2007).

Columns and labels:
P. vivax MSP133 = target: T1, P. vivax MSP133 (Plasmodium vivax, UniProt Q02569, A1444G/T1362K/T1451N); assay: isothermal titration calorimetry; type: binding
T1 sequence (Q02569 1325-1618 T1362K/A1444G/T1451N): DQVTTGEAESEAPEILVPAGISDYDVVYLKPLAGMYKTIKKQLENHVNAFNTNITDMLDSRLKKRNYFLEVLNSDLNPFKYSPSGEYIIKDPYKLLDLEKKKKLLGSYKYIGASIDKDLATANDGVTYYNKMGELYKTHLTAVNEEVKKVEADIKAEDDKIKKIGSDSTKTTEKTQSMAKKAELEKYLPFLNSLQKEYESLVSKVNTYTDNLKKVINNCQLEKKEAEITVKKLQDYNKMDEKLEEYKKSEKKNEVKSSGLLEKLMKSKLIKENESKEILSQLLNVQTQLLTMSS
Protocol: P. vivax MSP133 was expressed using the P. vivax MSP142 clone, above, as a template for PCR, followed by ligation of the product into vector pET30Xa/LIC. The sequence runs from Asp 1325 to Ser 1618 (Accession number A39401) following the N-terminal purification tag. The vector was used to transform BL21(DE3)pLysS cells. For expression, a culture of the transformed cells was induced at an OD600 of 0.6-0.8 at 37° C. with 1 mM IPTG for 3 h. The cells were harvested by centrifugation and the cell pellet lysed using the Bugbuster protein extraction reagent (Novagen). The cell lysate was cleared by centrifugation and the supernatant loaded directly onto a Ni-NTA column. The column was washed with 10 volumes of 50 mM NaH2PO4, 300 mM NaCl, 10 mM imidazole, pH 8.0, then with 6 column volumes of the same buffer containing 30 mM imidazole, and finally eluted with 3 column volumes of the buffer with 250 mM imidazole. The eluted protein was then loaded directly onto a Superdex 200 (26/600) column (Amersham) equilibrated in 20 mM Tris-HCl, 250 mM NaCl, pH 8.0 and purified by gel filtration. The fractions containing MSP-133 were pooled and dialysed extensively with PBS.
In addition to the fluorimetry, isothermal titration calorimetry (ITC) was performed using a Microcal omega VP-ITC (MicroCal Inc., Northampton, Mass.). The proteins were dialyzed extensively against the ITC buffer (phosphate buffered saline, pH 7.4). All experiments were performed at 25° C. The cell, 1.425 ml, contained 30 μM MSP142 or MSP133 and these were titrated by injection of a total of 290 μl of 600 μM suramin. The heat of dilution of suramin into buffer was determined in control experiments. The data were fitted by least-squares methods using the evaluation software, Microcal Origin version 5.0 provided by the manufacturer. Each experiment was performed twice.

MSP142 = MSP142 (Plasmodium falciparum, UniProt Q8I0U8); assay: P. falciparum MSP1 secondary processing assay (merozoites, Western blot); type: biochemical; parameters: Merozoites were purified as described previously; endogenous in cells; host or cells: purified P. falciparum merozoites released from mature schizonts
Protocol: Merozoites were purified as described previously (Blackman 1994 Methods Cell Biol. 45, 213-220) after release from mature schizonts into growth medium supplemented with 2 mM EGTA. Merozoites were harvested by centrifugation, followed by sequential passage through pre-wetted filters of 3 and 1.2 μm pore size. Merozoites were washed in Ca^2+- and Mg^2+-free PBS in the presence of protease inhibitors (leupeptin, antipain and aprotinin at 10 μg ml^−1). The merozoites were then washed and resuspended in 50 mM Tris-HCl pH 7.2, 5 mM CaCl2, 1 mM MgCl2, plus leupeptin, antipain and aprotinin at 10 μg ml^−1 (processing buffer), and divided into 18 μl aliquots. Two microlitres of either diluted compound or reaction buffer were added and the samples incubated for 1 h at 37° C. Control assays included those in which processing was prevented by immediate addition of either SDS, 1 mM PMSF or 5 mM EGTA; and those in the absence of compound or in the presence of 0.2 mM TLCK (tosyl-L-lysyl chloromethyl ketone). After 1 h the reaction was stopped, and MSP1 processing was analysed using a Western blot-based assay (Blackman 1994 Methods Cell Biol. 45, 213-220). The blots were probed with a rabbit anti-MSP133/MSP142 antibody and the bands corresponding to MSP142 and MSP133 polypeptides were visualised by enhanced chemiluminescence.
Purified merozoites were incubated in the presence or absence of suramin or NTS and polypeptides subjected to SDS-PAGE and Western blotting.

SMILES: Cc1ccc(C(=O)Nc2ccc(S(=O)(=O)O)c3cc(S(=O)(=O)O)cc(S(=O)(=O)O)c23)cc1NC(=O)c1cccc(NC(=O)Nc2cccc(C(=O)Nc3cc(C(=O)Nc4ccc(S(=O)(=O)O)c5cc(S(=O)(=O)O)cc(S(=O)(=O)O)c45)ccc3C)c2)c1 [suramin]
- Kd (P. vivax MSP133): 1.5 ± 0.5 µM
- binding to MSP133 weaker than to MSP142 (P. vivax MSP133; ITC): 5 fold
- AH value (P. vivax MSP133; ITC, 25° C.): 50.2 ± 4.2 kJ/mol
- inhibition of MSP142 secondary processing (MSP142; 200 μM, 1 h at 37° C.): absence of MSP133
- dose dependence of inhibition of MSP142 processing (FIG. 3B) (MSP142; 1.25-200 μM suramin): dose-dependent
